The target of experiment [1] is T1, human adipocyte fatty acid-binding protein (FABP4) (Homo sapiens, UniProt P15090).
T1 sequence (P15090 2-132): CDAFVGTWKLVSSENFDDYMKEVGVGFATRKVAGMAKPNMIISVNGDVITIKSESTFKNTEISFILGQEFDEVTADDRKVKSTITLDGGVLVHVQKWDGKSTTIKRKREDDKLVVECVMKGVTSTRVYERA
Kind of experiment: Surface Plasmon Resonance (SPR) binding assay, immobilized protein. Conditions: for binding to immobilized FABP4 in SPR: 200, 100, 50, 25, 12 μM, triplicates. The protocol:
(§1) Briefly, mouse extracellular domain 1–2 (EC 1–2) C-terminally cysteine-tagged FABP4 and Aldose Reductase recombinant protein was immobilized on flow cell (FC) 2 in HEPES buffered saline (10 mM Hepes, pH 7.4, and 150 mM NaCl, 3 mM CaCl2) using a thiol-coupling kit according to the manufacturer’s protocol, resulting in immobilization levels of 4580 response units (RU). FC1 was only activated and inactivated and used as a reference. […] Each injection was repeated three times for 60 s. FC1 signals were deducted from FC2 for background noise elimination.

The target of experiment [2] is human aldose reductase (AKR1B1) (Homo sapiens, UniProt P15121). The description is as above. Conditions: for binding to immobilized AKR1B1 in SPR: 200, 100, 50, 25, 12 μM, triplicates. The protocol: as §1
The next experiment has as its target T2, JAK2 (Homo sapiens, UniProt O60674).
T2 construct: purchased Discoverx (Kinomescan)
As to the kind of experiment: Kinomescan active site-directed competition kinase binding assay. Conditions: read-out: Percent Control at 10 µM (Lower Numbers Indicate Stronger Hits). The protocol: (§2) Kinase assays were performed using Kinomescan, by Discoverx, CA, USA and Caliper LabChip 3000 by Caliper Life sciences, USA as described by us previously. The determination of Mebendazole (MBZ) thermodynamic binding affinities (Kd) to kinase targets predicted by ES-Screen was performed by using active site-directed competition binding. Kinase-tagged T7 phage strains were grown in parallel in 24-well blocks in an E. coli host derived from the BL21 strain. E. coli bacteria were grown to log-phase and infected with T7 phage from a frozen stock (multiplicity of infection = 0.4) and incubated with shaking at 32 °C until lysis (90–150 min). The lysates were centrifuged (6000× g) and filtered (0.2 μm sieves) to remove cell debris. The remaining kinases were produced in HEK-293 cells and subsequently tagged with DNA for qPCR detection. […] The liganded beads were blocked with excess biotin and washed with blocking buffer (SeaBlock (Pierce), 1% BSA, 0.05% Tween 20, 1 mM DTT) to remove unbound ligands and to reduce non-specific phage binding. Binding reactions were assembled by combining kinases, control liganded affinity beads, and mebendazole in 1× binding buffer (20% SeaBlock, 0.17 × PBS, 0.05% Tween 20, 6 mM DTT). Mebendazole was prepared as 40× stocks in 100% DMSO and directly diluted into the assay. All reactions were performed in polypropylene 384-well plates in a final volume of 0.04 mL. The assay plates were incubated at room temperature with shaking for 1 h and the affinity beads were washed with wash buffer (1 × PBS, 0.05% Tween 20). […] The kinase concentration in the eluates was measured by qPCR. Ligands that bind the kinase active site and directly prevent kinase binding to the immobilized ligand will reduce the amount of kinase captured. […] The amount of kinase captured in test versus control samples were measured by using a quantitative, precise and ultra-sensitive qPCR method that detects the associated DNA label. Using the primary screen binding interactions are reported as ‘% Ctrl’ (Percent kinase remaining activity, Equation (8)), where lower numbers indicate stronger hits. (8) Percent Control (%Ctrl)=Mebendazole signal − Positive control signal/DMSO Negative control signal − Positive control signal × 100
(§3) In a similar manner, binding constants (Kd) for mebendazole-kinase interactions are calculated by measuring the amount of kinase captured as a function of the mebendazole concentration in a dose response manner. […] Most Kds were determined using a starting concentration = 30,000 nM. […] Binding constants (Kd) were calculated with a standard dose–response curve (ligand dose (x-axis)—qPCR signal (y-axis)) using the Hill Equation (9), with the Hill Slope set to −1. […]

The next experiment deals with T3, MKNK2 (Homo sapiens, UniProt Q9HBH9).
T3 construct: purchased Discoverx (Kinomescan)
T3 sequence (Q9HBH9 whole entry): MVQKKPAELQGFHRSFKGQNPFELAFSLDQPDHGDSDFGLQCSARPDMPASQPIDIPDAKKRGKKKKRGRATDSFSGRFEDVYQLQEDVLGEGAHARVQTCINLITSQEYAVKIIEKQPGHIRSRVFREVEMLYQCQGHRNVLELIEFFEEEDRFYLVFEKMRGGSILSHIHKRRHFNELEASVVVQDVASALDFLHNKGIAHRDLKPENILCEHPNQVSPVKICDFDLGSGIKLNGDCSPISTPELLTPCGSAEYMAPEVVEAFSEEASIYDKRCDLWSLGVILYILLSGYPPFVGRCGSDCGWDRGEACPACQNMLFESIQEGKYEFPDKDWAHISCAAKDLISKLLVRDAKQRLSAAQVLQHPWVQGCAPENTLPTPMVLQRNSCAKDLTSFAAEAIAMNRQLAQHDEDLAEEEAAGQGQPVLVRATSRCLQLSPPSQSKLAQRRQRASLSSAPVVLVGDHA
Described as above. Conditions: read-out: Percent Control at 10 µM (Lower Numbers Indicate Stronger Hits). Here is the method: as §2, §3

The target of the next experiment is T4, PIK3CG (Homo sapiens, UniProt P48736).
T4 construct: purchased Discoverx (Kinomescan)
T4 sequence (P48736 whole entry): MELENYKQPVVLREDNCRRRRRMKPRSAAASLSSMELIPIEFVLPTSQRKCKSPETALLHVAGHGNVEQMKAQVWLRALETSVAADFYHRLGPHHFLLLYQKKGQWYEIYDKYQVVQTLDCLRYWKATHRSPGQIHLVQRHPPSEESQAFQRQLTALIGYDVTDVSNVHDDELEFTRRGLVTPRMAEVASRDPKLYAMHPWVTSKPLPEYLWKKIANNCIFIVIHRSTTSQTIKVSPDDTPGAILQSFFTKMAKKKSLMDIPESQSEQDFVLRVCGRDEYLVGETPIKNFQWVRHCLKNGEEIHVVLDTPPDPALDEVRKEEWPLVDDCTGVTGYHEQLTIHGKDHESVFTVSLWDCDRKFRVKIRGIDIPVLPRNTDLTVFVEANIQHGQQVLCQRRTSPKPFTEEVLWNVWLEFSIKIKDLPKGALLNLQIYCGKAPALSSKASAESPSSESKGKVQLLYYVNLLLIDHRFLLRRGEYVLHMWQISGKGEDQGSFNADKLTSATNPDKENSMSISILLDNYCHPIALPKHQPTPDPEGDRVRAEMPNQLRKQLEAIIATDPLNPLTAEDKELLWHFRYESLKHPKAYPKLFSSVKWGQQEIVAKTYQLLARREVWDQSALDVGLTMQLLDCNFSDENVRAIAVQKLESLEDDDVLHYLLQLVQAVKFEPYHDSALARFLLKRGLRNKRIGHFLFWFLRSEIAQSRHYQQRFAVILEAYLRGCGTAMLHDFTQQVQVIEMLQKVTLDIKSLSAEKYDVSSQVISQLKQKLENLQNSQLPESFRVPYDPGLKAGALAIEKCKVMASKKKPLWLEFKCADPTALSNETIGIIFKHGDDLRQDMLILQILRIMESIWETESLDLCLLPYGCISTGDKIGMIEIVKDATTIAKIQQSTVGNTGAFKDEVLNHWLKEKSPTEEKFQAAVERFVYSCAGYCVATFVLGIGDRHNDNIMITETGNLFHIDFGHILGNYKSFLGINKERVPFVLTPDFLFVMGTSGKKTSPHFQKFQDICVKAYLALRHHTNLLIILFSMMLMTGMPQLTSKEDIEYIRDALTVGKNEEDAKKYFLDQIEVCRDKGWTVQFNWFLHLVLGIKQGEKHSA
Described as above. Conditions: read-out: Percent Control at 10 µM (Lower Numbers Indicate Stronger Hits). The protocol:
as §2, §3

For another experiment, the target named is T5, RAF1 (Homo sapiens, UniProt P04049).
T5 construct: purchased Discoverx (Kinomescan)
T5 sequence (P04049 whole entry): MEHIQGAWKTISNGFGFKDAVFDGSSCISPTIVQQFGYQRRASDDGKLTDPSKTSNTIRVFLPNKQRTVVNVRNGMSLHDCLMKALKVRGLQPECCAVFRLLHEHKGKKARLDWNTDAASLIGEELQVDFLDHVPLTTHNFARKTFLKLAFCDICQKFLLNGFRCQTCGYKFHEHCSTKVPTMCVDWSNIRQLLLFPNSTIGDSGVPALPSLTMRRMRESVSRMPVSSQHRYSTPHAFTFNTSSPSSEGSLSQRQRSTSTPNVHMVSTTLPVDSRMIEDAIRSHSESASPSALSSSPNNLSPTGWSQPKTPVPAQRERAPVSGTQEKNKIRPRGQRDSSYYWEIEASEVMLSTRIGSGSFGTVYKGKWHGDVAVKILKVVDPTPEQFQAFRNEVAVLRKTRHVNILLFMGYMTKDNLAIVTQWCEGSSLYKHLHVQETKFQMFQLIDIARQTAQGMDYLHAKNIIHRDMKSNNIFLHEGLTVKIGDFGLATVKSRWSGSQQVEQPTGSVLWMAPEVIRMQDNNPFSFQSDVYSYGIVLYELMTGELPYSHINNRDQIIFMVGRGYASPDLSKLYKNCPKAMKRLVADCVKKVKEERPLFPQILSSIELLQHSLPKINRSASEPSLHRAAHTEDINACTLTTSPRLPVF
The experiment is described as above. Conditions: read-out: Percent Control at 10 µM (Lower Numbers Indicate Stronger Hits). Here is the method:
as §2, §3

T2 sequence (O60674 840-1132 limits assumed): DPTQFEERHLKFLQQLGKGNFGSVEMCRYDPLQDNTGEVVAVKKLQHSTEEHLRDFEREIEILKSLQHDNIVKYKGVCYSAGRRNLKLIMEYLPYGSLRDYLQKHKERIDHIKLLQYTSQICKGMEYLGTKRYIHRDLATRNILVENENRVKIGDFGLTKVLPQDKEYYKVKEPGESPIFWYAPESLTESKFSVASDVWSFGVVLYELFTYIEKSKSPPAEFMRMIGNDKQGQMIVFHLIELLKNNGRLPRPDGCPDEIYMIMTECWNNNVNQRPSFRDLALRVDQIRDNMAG

As for `COc1ccc2c(c1)c(CC(=O)O)c(C)n2C(=O)c1ccc(Cl)cc1` [indomethacin], the “binding to immobilized FABP4 in SPR” value in experiment [1] is given as “in a dose-dependent manner”. Also, the “binding to immobilized AKR1B1 in SPR” value in experiment [2] was “in a dose-dependent manner”.

Regarding `CC1(C)Cc2c(-c3ccccc3)c(-c3ccc(Cl)cc3)c(CC(=O)O)n2C1` [licofelone], the “binding to immobilized FABP4 in SPR” value in experiment [1] is recorded as “in a dose-dependent manner”. Moreover, the “binding to immobilized AKR1B1 in SPR” value in experiment [2] is given as “in a dose-dependent manner”.

Consider `COC(=O)Nc1nc2ccc(C(=O)c3ccccc3)cc2[nH]1` [mebendazole], for which the percent of control kinase binding at 10 µM at JAK2 amounted to 39%. The remaining binding at 10 µM on MKNK2 came out at 46%; on PIK3CG it was 18%; at RAF1, 23%. The “binding to immobilized FABP4 in SPR” value in experiment [1] is “bind directly, in a dose-dependent manner”. In addition, the Kd in experiment [1] (SPR, FABP4, read-out: KD50) was 8.4 µM; in experiment [2] (SPR, AKR1B1, read-out: KD50), 5.5 µM. In addition, in experiment [2], the “binding to immobilized AKR1B1 in SPR” value is “bind directly, in a dose-dependent manner”.

As for `O=C(O)CCc1nc(-c2ccccc2)c(-c2ccccc2)o1` [oxaprozin], the “binding to immobilized FABP4 in SPR” value in experiment [1] is reported as “in a dose-dependent manner”. For the same compound, the “binding to immobilized AKR1B1 in SPR” value in experiment [2] is “in a dose-dependent manner”.

These data come from publication PMC9736079, “ES-Screen: A Novel Electrostatics-Driven Method for Drug Discovery Virtual Screening” (International Journal of Molecular Sciences, 2022).
